# Several values for one entry are separate records, joined by “and”; a condition that tells them apart may be missing. Equal values may be shown once.
# Experiments:
# CYP2E1 = CYP2E1 (Homo sapiens, UniProt P05181); conditions: read-out: Literature IC50 value, CYP2E1; Chlorzoxazone-6-hydroxylation; positive control inhibitor; unit inferred; cited from earlier work
# [1] = system: 6-OHDA lesion of the SNpc; assay: Parkinson's disease in vivo: 6-OHDA model; set-up: species or system mouse; conditions: 6-OHDA lesioned mice, dose not given; for Behaviour (Rotation) % SSV: SSV = 0%
# Protocol: Parkinson's Disease In Vivo Technique: 6-OHDA Model
# Preparation of the toxin 6-OHDA (1.65 mg/mL, Sigma Cat# H-4381):
# 6-OHDA toxin is dissolved in ascorbic acid solution (0.2 mg/mL in dH2O), store in dark on ice. To increase the speed of anaesthesia and reduce stress to the mouse, there is premedication with atropine (0.5 mg/kg) and xylazine (10 mg/kg) is injected subcutaneously via a 27 gauge needle).
# To Prepare the Lesion Needle to Inject 6-OHDA:
# PBS is sucked up into the line (ensure no air bubbles) with up to […] in a Hamilton syringe. Syringe is placed the in the Kd Scientific syringe pump and secured. Pump is turned the on and syringe is loaded into the pump. Pump volume is set at […] and the rate is set at 0.5 ml/min. The lesion needle is positioned so that the bevelled (eye) of the needle is at a 45° angle from the midline and tightened to secure the needle. Pump is run and checked for fluid coming out.
# 3-4% isoflurane is carried by oxygen to induce anaesthesia and 1-2% for maintenance of anaesthesia. Animal is placed in small induction chamber and subjected to a few minutes of 4% isoflurane in oxygen at a flow rate of approx 1 l/min. Mouse is then placed in stereotaxic frame. The anaesthetic tube is disconnected from induction box and isoflurane reduced to 2% conc and oxygen flow rate to approx […]. Tube is connected to the nose piece attached to stereotaxic frame so that anaesthetic gas can be constantly administered during surgery. LHS ear bar is screwed at approx 3 mm. RHS ear bar is screwed in until there is no sideways head movement (about 5 mm). Front incisors are placed over the mouthguard and put nose-guard on (3 mm below 0). Mouthguard is screwed into place and ensured the top of the mouse's head is level (re-check this once the animal's skull is exposed).
# Using a scalpel (size 4, blade 22), the scalp is cut down the centreline of the mouse's head to expose the skull. Typically 10-15 mm. The surface of the skull is dried with a cotton bud. Drill hole is measured with a ruler 3 mm posterior from Bregma and between 1 and 1.5 mm laterally from the centre line. The skull is drilled into this position until the surface of the brain is exposed.
# 6-OHDA is sucked up to fill approximately 15 cm of the line and the syringe. Fluid is ensured to be coming out of needle. The bevelled of the needle is aligned over the centreline where Bregma crosses, viewed by Motik dissecting microscope. The needle is ensured to be a few mm above the skull before positioning. Frame is moved 2.9 mm in a posterior direction and 1.1 mm (11 small notches) laterally to the right (for RHS injections) from the starting coordinates at Bregma. Needle is moved down until the tip of the needle just touches the surface of the brain.
# Needle is lowered to the required depth of 4.6 mm and brain is allowed to settle for 2 min.
# […] of toxin is injected into the RHS SNpc, taking 4 min. 2 min is allowed to ensure the toxin disperses. Needle is withdrawn and antiseptic applied to the wound, with suture or superglue to close.
# Mouse is wrapped in a piece of tissue and placed in a warm recovery box (on a heat pad) with water bottles (50 ml tubes) warmed to 50 C. Panadol® syrup is added to mouse's water bottle.
# Rotation is recorded by the Computer based Rotacount system—(Columbus Instruments, Columbus, Ohio, USA). The system comprised of 8 bowls with sensors connected to a computer which measures incremental turns (90 degrees and full turns 360 degrees) either clockwise or counter clockwise. The sensors are positioned above the centre of each bowl about 30 cm above each. Tubing and a thin empty plastic pipette are attached so that the sensor is now extended to with a few cm of the base of the bowl.
# Mice are placed individually into the eight bowls. Mice are secured to the pipettes via a cable tie and tape. […]
# [2] = system: MPTP induced cell death in the SN; assay: Parkinson's disease in vivo: MPTP model; set-up: species or system mouse; conditions: MPTP mice
# CYP2E1, sequence (P05181 whole entry): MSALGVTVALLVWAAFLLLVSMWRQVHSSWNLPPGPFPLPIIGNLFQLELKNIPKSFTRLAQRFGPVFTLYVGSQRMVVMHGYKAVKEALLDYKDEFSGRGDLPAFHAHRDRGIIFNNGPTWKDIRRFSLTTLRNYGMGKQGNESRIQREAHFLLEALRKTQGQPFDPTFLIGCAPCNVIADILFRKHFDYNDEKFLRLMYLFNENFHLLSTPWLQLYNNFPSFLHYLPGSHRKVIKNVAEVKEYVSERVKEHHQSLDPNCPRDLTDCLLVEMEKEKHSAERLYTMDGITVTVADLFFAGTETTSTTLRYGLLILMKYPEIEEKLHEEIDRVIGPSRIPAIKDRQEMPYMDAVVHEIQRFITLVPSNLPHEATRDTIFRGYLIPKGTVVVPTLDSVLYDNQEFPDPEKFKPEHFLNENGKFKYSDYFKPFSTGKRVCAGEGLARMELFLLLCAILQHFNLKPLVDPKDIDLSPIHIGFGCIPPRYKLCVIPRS
Compound,IC50 (CYP2E1) [µM],Behaviour (Rotation) % SSV [1] [%],Behaviour (Rotation) total turns/h ± SD [1],SN cell counts % of SSV (SSV = 0%) [1] [%],SN cell counts (cells ± SD) [1],"Behaviour Pole Test, % (SSV = 0%) ([2]; L-DOPA 20 mg/kg) [%]","Behaviour Pole Test, value ± SD ([2]; L-DOPA 20 mg/kg)",SN cell counts % of SSV ([2]; L-DOPA 20 mg/kg),SN cell counts (cells +/− SD) ([2]; L-DOPA 20 mg/kg),"Behaviour Pole Test, % (SSV = 0%) ([2]; Selegiline 1 mg/kg) [%]","Behaviour Pole Test, value ± SD ([2]; Selegiline 1 mg/kg)",SN cell counts % of SSV ([2]; Selegiline 1 mg/kg) [%],SN cell counts (cells +/− SD) ([2]; Selegiline 1 mg/kg)
N[C@@H]1C[C@H]1c1ccccc1 (racemic) [Tranylcypromine],8.94,–,–,–,–,–,–,–,–,–,–,–,–
"N[C@@H](Cc1ccc(O)c(O)c1)C(=O)O [L-DOPA, L-3,4-dihydroxyphenylalanine]",–,52.26,(123.67 ± 80.90) turns/h,1.73,(1953.78 ± 280.21) cells,−205.29,(8.91 ± 5.25),10.39% and 4.50%,1935 ± 296 cells and 2015.91 ± 729.87 cells,–,–,–,–
"C#CCN(C)[C@H](C)Cc1ccccc1 [Selegiline, reference compound]",–,71.13,(74.80 ± 57.95) turns/h,0.43,(1928.89 ± 301.77) cells,–,–,–,–,−198.93,(8.73 ± 7.95),39.2,(2754.62 ± 461.23) cells

# Reference: US9145375B2, “Quinazolinone compounds” (PRANA BIOTECHNOLOGY LIMITED, priority 2008, dated 2015)
